Reference: patent US20240423977A1, “FIVE-MEMBERED RING-FUSED SIX-MEMBERED RING COMPOUND, PREPARATION METHOD THEREFOR, AND PHARMACEUTICAL COMPOSITION AND USE THEREOF” (HANGZHOU POLYMED BIOPHARMACEUTICALS, INC., priority 2022, published 2024)

Key:
kinase IRAK4 = kinase IRAK4 (Homo sapiens (Human), UniProt Q9NWZ3); assay: Inhibitory effects of compounds on kinase activity (fluorescence microfluidic mobility detection, competitive with ATP); type: biochemical; details: IRAK4 6 nM, ATP 10 μM
Experimental: Based on an experimental method of fluorescence microfluidic mobility detection, an IC50 value of competitive binding of kinase IRAK4 to ATP by the compounds was determined. The initial detection concentration of the compounds was 10 μM, diluted 4-fold gradient down to […], and tested in duplicate. Among them, commercial staurosporine was the standard control substance in this experiment.
1) IRAK4 kinase was dissolved in kinase buffer (50 mM HEPES pH 7.5, 10 mM MgCl2, 2 mM DTT and 0.01% Brij-35) to a final concentration of 6 nM.
2) The substrate peptide FAM-P8 and ATP were dissolved in the above kinase buffer. The final concentrations of the IRAK4 substrate peptide FAM-P8 and ATP were 3 μM and 10 μM respectively.
3) Dilution of the compounds: the compound was first diluted to 50 μM, and then diluted down with a 4-fold gradient of DMSO. The solution without the compound and kinase is used as a blank control, corresponding to the “minimum value” shown below; and the solution without the compound but with kinase, adenosine 5′-triphosphate disodium salt hydrate, DMSO and buffer is used as a positive control, corresponding to the “maximum value” shown below. 4) Kinase reaction and termination: 10 μL of kinase buffer was added to a 384-well plate containing 5 μL of the compound to be tested, and incubated at room temperature for 10 minutes. Another 10 μL of buffer containing the substrate peptide and adenosine 5′-triphosphate disodium salt hydrate was added to the 384-well plate. After incubation at 28° C. for one hour, 25 μL stop solution (100 mM HEPES pH 7.5, 50 mM EDTA, 0.2% Coating Reagent #3 and 0.015% Brij-35) was added to each well to terminate the reaction.
5) Data reading: the CaliperEZ Reader II instrument was used to read the conversion rate data. Conditions: downstream voltage −500V, upstream voltage −2250V, base pressure −0.5 PSI, and screening pressure −1.2 PSI.
6) Data calculation: the conversion rate data was copied from CaliperEZ Reader II and converted into inhibition rate data. The calculation formula is as follows:
[formula] • IC50 values were fitted using XLFit excel add-in version 5.4.0.8,
Y=Bottom+(Top−Bottom)/(1+(IC50/X)^HillSlope) Fitting formula: […]

[1] = target: IRAK4 protein in THP-1 cells (Homo sapiens (Human), UniProt Q9NWZ3); assay: PROTAC-induced IRAK4 protein degradation in THP-1 cells (Western Blot); type: cell-based; details: for DC50: concentration that degraded 50% of IRAK4, Western blotting, 24 hours after administration; for IRAK4 degradation rate 24 hours after administration of the compounds with a concentration of 1 μM: Western blotting
IRAK4 protein in THP-1 cells, sequence (Q9NWZ3 whole entry): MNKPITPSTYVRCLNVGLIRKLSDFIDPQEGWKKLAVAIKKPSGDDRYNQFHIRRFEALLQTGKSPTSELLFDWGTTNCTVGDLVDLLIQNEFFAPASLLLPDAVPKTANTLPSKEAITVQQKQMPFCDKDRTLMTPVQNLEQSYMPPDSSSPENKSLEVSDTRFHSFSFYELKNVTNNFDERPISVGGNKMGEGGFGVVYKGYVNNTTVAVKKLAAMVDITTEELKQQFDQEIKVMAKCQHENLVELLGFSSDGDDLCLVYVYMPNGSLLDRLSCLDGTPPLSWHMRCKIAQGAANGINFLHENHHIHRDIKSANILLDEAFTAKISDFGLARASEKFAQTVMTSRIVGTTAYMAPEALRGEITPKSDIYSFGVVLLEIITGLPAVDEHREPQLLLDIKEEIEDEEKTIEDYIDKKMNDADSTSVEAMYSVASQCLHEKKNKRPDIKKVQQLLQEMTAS
Experimental: 2.1 Based on the experimental method of Western Blot, specific antibodies were used to stain the THP-1 cell samples treated by gel electrophoresis, and the degrading activity of the compounds on the IRAK4 protein in THP-1 cells was determined by analyzing the position and depth of staining. The concentrations of compound for the detection included 0 μM, 0.3 μM, 1 μM and 3 μM, and the cells were treated by the compound for 8 hours, 16 hours, 24 hours, and 48 hours. Glyceraldehyde-3-phosphate dehydrogenase (GAPDH) is an internal reference protein in this experiment.
Electrophoresis buffer: 50 mL MOPS SDS Running Buffer (20×) and 50 mL 20×TBS Tween-20 buffer were diluted with deionized water to 1 L as the electrophoresis buffer;
5% skim milk (w/v): 2.5 g skim milk was diluted with 50 mL 1×TBS Tween-20 buffer to prepare 5% skim milk;
5% BSA (w/v): 2.5 g BSA was diluted with 50 mL 1×TBS Tween-20 buffer to prepare 5% BSA;
Anti-IRAK4 antibody was diluted with 5% BSA at 1:1000 into a primary antibody working solution;
Goat Anti-Rabbit IgG H&L (HRP) was diluted with 5% BSA at 1:2000 into a second antibody working solution; and
Goat Anti-Mouse IgG H&L (HRP) was diluted with 5% BSA at 1:2000 into a second antibody working solution.
THP-1 cells were plated in a 6-well plate at a density of 1.5×10^6 cells per ml and incubated for 2 hours in a cell culture incubator under 37° C. and 5% CO2. The compound was diluted with DMSO to 0.6 mM, 0.2 mM and 0.06 mM respectively. 10 μL of compound solution was added to the corresponding wells, and continued to incubate in the incubator for 16 hours, 24 hours and 48 hours respectively. The compound-treated THP-1 cells in the well were collected, added with 120 μL of RIPA lysate containing protease inhibitor, Phosphatase Inhibitor Cocktail 2 and Phosphatase Inhibitor Cocktail 3, lysed on wet ice for 30 minutes, and then the cells lysate was centrifuged at a high speed and a low temperature for 5 minutes to collect the supernatant. The protein concentration of the cell sample was determined according to the instructions in the Pierce™ BCA Protein Assay Kit.
The concentration of the sample was adjusted to be consistent using lysis buffer and NuPAGE® LDS sample buffer containing 1M DTT. The samples were heated at 95° C. for 5 minutes and centrifuged at a low temperature and at a high speed. 20 μL of the prepared protein sample and 4 μL of PageRuler Prestained Protein Ladder were added into the gel well for running at 80V voltage for 0.5 hours, then the voltage was adjusted to 120V for further running for 1.5 hours. The gel was removed and the proteins in the gel were transferred to the IBlotTM 2 transfer membrane set at 20V. After successful transfer, bands at 65 kDa-40 kDa and 40 kDa-30 kDa were cut respectively. The membranes were blocked with 5% skim milk for 1 hour at room temperature. The membranes were washed three times with 1× concentration of TBST, then incubated with IRAK4 antibody working solution overnight at 4° C. The IRAK4 antibody working solution was discarded, and the membranes were washed three times with 1×concentration of TBST, and incubated with Goat Anti-Rabbit IgG H&L (HRP) working solution and Goat Anti-Mouse IgG H&L (HRP) working solution at room temperature. After 1 hour of incubation, the antibody working solution was discarded and the membranes were washed three times with 1× concentration of TBST. According to the instructions of the kit SuperSignal™ West Femto Maximum Sensitivity Substrate, the reagents in the kit were mixed in equal volume proportions to prepare a luminescent liquid mixture. The membranes were incubated for 1 minute, then removed for exposure.
The results of Western blotting 24 hours after administration of the compounds with a concentration of 1 μM were shown in Table 3: […]

kinase IRAK4, sequence (Q9NWZ3 whole entry): as above

| IC50 (kinase IRAK4; Table 2, substrate FAM-P8 3 μM) [nM] | DC50 [1] [nM] | IC50 (kinase IRAK4; Table 1, class symbols) [nM] | IRAK4 degradation rate 24 hours after administration of the compounds with a concentration of 1 μM [1] | Structure (SMILES) |
| --- | --- | --- | --- | --- |
| 42 | 6.9 |  |  | COc1cc2nn(C3CCC4(CC3)CCN(C(=O)C3CCN(c5ccc6c(c5)C(=O)N(C5CCC(=O)NC5=O)C6=O)CC3)CC4)cc2cc1NC(=O)c1cccc(C(F)(F)F)n1 (stereo not drawn) [Compound I-27] |
| 11 | 6.15 | < 100 | 75~100% | COc1cc2nn(C3CCN(CC(=O)N4CCN(c5cc6c(cc5F)C(=O)N(C5CCC(=O)NC5=O)C6=O)CC4)CC3)cc2cc1NC(=O)c1cccc(C(F)(F)F)n1 (stereo not drawn) [II-5] |
| 8.1 | 3.6 |  |  | COc1cc2nn(C3CC4(CCN(C(=O)C5CCN(c6ccc7c(c6)CN(C6CCC(=O)NC6=O)C7=O)CC5)CC4)C3)cc2cc1NC(=O)c1cccc(C(F)(F)F)n1 (stereo not drawn) [Compound I-7] |
| 27.3 | 8.05 |  |  | COc1cc2nn(C3CC4(CCN(C(=O)[C@H]5CC[C@H](Nc6ccc7c(c6)C(=O)N([C@H]6CCC(=O)NC6=O)C7=O)CC5)CC4)C3)cc2cc1NC(=O)c1cccc(C(F)(F)F)n1 [Compound I-59] |
| 25.9 | 8.2 | < 100 |  | COc1cc2nn(C3CC4(CCN(C(=O)C5CCN(c6cc7c(cc6F)C(=O)N(C6CCC(=O)NC6=O)C7=O)CC5)CC4)C3)cc2cc1NC(=O)c1cccc(C(F)(F)F)n1 (stereo not drawn) [Compound I-8] |
| 11.6 | 9.9 |  |  | COc1cc2nn(C3CC4(CCC(NC5CCN(c6ccc7c(c6)C(=O)N(C6CCC(=O)NC6=O)C7=O)CC5)CC4)C3)cc2cc1NC(=O)c1cccc(C(F)(F)F)n1 (stereo not drawn) [Compound I-16] |
| 16.6 | 12.6 |  |  | COc1cc2nn(C3CC4(C3)CN(C(=O)C3CCN(c5ccc6c(c5)C(=O)N(C5CCC(=O)NC5=O)C6=O)CC3)C4)cc2cc1NC(=O)c1cccc(C(F)(F)F)n1 (stereo not drawn) [Compound I-14] |
| 34.8 | 33.8 |  |  | COc1cc2nn(C3CC4(CCN(c5cnn(C6CCN(c7ccc8c(c7)C(=O)N(C7CCC(=O)NC7=O)C8=O)CC6)c5)CC4)C3)cc2cc1NC(=O)c1cccc(C(F)(F)F)n1 (stereo not drawn) [Compound I-32] |
| 5.5 | 14.1 |  |  | COc1cc2nn(C3CCN(CC(=O)N4CCN(c5cccc6c5C(=O)N(C5CCC(=O)NC5=O)C6=O)CC4)CC3)cc2cc1NC(=O)c1cccc(C(F)(F)F)n1 (stereo not drawn) [II-20] |
| 33.4 | 7.86 |  |  | COc1cc2nn(C3CC4(CCN(C(=O)C5CCN(c6ccc7c(c6)C(=O)N(C6CCC(=O)NC6=O)C7=O)CC5(F)F)CC4)C3)cc2cc1NC(=O)c1cccc(C(F)(F)F)n1 (stereo not drawn) [Compound I-35] |
| 24 | 5.07 |  |  | O=C1CCC(N2C(=O)c3ccc(N4CCC(C(=O)N5CCC6(CC5)CC(n5cc7cc(NC(=O)c8cccc(C(F)(F)F)n8)c(N8CC[C@@H](O)C8)cc7n5)C6)CC4)cc3C2=O)C(=O)N1 (stereo partly drawn) [Compound I-10] |
| 17.4 | 15.3 |  |  | COc1cc2nn(C3CC4(CCN(C5CC6(CCN(c7ccc8c(c7)C(=O)N(C7CCC(=O)NC7=O)C8=O)CC6)C5)CC4)C3)cc2cc1NC(=O)c1cccc(C(F)(F)F)n1 (stereo not drawn) [Compound I-24] |
| 49.8 | 4.42 |  |  | COc1cc2nn(C3CC4(CCN(C(=O)C5CCN(c6ccc7c(c6)C(=O)N(C6CCC(=O)NC6=O)C7=O)CC5)CC4)C3)cc2cc1NC(=O)c1cccc(N2CCOCC2)n1 (stereo not drawn) [Compound I-41] |
| 11 | 4.41 | < 100 | 75~100% | COc1cc2nn(C3CC4(CCN(CC(=O)N5CCN(c6ccc7c(c6)C(=O)N(C6CCC(=O)NC6=O)C7=O)CC5)CC4)C3)cc2cc1NC(=O)c1cccc(C(F)(F)F)n1 (stereo not drawn) [Compound I-2] |
| 19 | 3.26 |  |  | COc1cc2nn(C3CC4(CCN(C(=O)C5CCN(c6cc7c(cc6F)C(=O)N([C@@H]6CCC(=O)NC6=O)C7=O)CC5)CC4)C3)cc2cc1NC(=O)c1cccc(C(F)(F)F)n1 [Compound I-62] |
| 29.9 | 20.7 |  |  | COc1cc2nn(C3CC4(CCN(C(=O)C5(C)CCN(c6ccc7c(c6)C(=O)N(C6CCC(=O)NC6=O)C7=O)CC5)CC4)C3)cc2cc1NC(=O)c1cccc(C(F)(F)F)n1 (stereo not drawn) [Compound I-37] |
| 36.6 | 2.06 | < 100 |  | COc1cc2nn(C3CC4(CCN(C(=O)[C@H]5CC[C@H](Nc6ccc7c(c6)C(=O)N(C6CCC(=O)NC6=O)C7=O)CC5)CC4)C3)cc2cc1NC(=O)c1cccc(C(F)(F)F)n1 (stereo partly drawn) [Compound I-4] |
| 17.7 | 9.15 |  |  | COc1cc2nn(C3CC4(CCN(C(=O)C5CCN(c6cc7c(cc6F)C(=O)N(C6CCC(=O)NC6=O)C7=O)CC5)CC4)C3)cc2cc1NC(=O)c1cccc(N2CCOCC2)n1 (stereo not drawn) [Compound I-46] |
| 1960 |  |  |  | COc1cc2c(cnn2C2CC3(CCC(C(=O)N4CCN(c5ccc6c(c5)C(=O)N(C5CCC(=O)NC5=O)C6=O)CC4)CC3)C2)cc1NC(=O)c1cccc(C(F)(F)F)n1 (stereo not drawn) [Compound I-56] |
| 31 | 25.9 |  |  | COc1cc2nn(C3CC4(CCN(C(=O)C5CC6(C5)CN(c5ccc7c(c5)C(=O)N(C5CCC(=O)NC5=O)C7=O)C6)CC4)C3)cc2cc1NC(=O)c1cccc(C(F)(F)F)n1 (stereo not drawn) [Compound I-17] |

| Structure (SMILES) | IC50 (kinase IRAK4; Table 2, substrate FAM-P8 3 μM) [nM] | DC50 [1] [nM] | IC50 (kinase IRAK4; Table 1, class symbols) [nM] | IRAK4 degradation rate 24 hours after administration of the compounds with a concentration of 1 μM [1] |
| --- | --- | --- | --- | --- |
| COc1cc2nn(C3CC4(CCN(C(=O)C5CCN(c6ccc7c(c6)C(=O)N([C@@H]6CCC(=O)NC6=O)C7=O)CC5)CC4)C3)cc2cc1NC(=O)c1cccc(C(F)(F)F)n1 [Compound I-66] | 25.3 | 3.14 |  |  |
| COc1cc2nn(C3CC4(CCN(C(=O)C5CCN(c6ccc7c(c6)C(=O)N([C@H]6CCC(=O)NC6=O)C7=O)CC5)CC4)C3)cc2cc1NC(=O)c1cccc(C(F)(F)F)n1 [Compound I-57] | 32.4 | 12.2 |  |  |
| COc1cc2nn(C3CC4(CCN(C(=O)C5CCN(c6ccc7c(c6)C(=O)N([C@@H]6CCC(=O)NC6=O)C7=O)CC5)CC4)C3)cc2cc1NC(=O)c1cccc(C(F)(F)F)n1 [Compound I-58] | 35.1 | 2.67 |  |  |
| COc1cc2nn(C3CC4CCC(C3)N4CC(=O)N3CCN(c4ccc5c(c4)C(=O)N(C4CCC(=O)NC4=O)C5=O)CC3)cc2cc1NC(=O)c1cccc(C(F)(F)F)n1 (stereo not drawn) [II-13] | 10.5 | 478 | < 100 |  |
